Reference: patent US10131661B2, “High-solubility acetone-added pyrroloquinoline quinone salt” (Mitsubishi Gas Chemical Company, Inc., priority 2015, dated 2018)
Values after ≈ are worked out from the molar mass of the structure shown.

Columns and labels:
[1] = Measurement of the solubility (30° C.) of a HOP alkali metal salt to water; settings: 1 hour or more, absorbance at 360 nm
Experimental: (§1) Water in such an amount that the HOP alkali metal salt fabricated in each Example remained undissolved was added to 100 mg of the HOP alkali metal salt. The resultant solution was allowed to stand still at 30° C. for 1 hour or more. Then, the solution was centrifugally separated to thereby separate a supernatant liquid and the HOP alkali metal salt remaining undissolved, and thereafter, the supernatant was diluted and the absorbance at 360 nm was measured. The solubility was calculated from the obtained absorbance.

[2] = Storage stability in a solid state, visual check after 1 month; assay type: physicochemical
Experimental: The HOP alkali metal salt fabricated in each Example was subjected to cold storage (4° C.) and room-temperature storage (23° C.) in a solid state, and changes after a lapse of 1 month were visually checked.

[3] = system: Human uterine cancer cells, HeLa cells; test: Cell activity test (cell number by Cell Counting Kit 8); assay type: cell-based; settings: 2 days
Experimental: Human uterine cancer cells, HeLa cells, were scattered on 96 wells so as to be 1,000 cells/well, and were cultivated in a DMEM (Invitrogen Corp.)+10% FBS culture medium under the condition of a 5% CO2 concentration and 37° C. in an incubator for one night. Thereafter, the HOP alkali metal salt fabricated in each Example was added to the culture medium so that the concentration of the HOP alkali metal salt became 4.9 mg/L and 19.5 mg/L. Further the cultivation was continued further for 2 days, and thereafter, the culture medium was removed from the wells; the well interiors were washed; and the number of the cells in the wells were measured by using a Cell Counting Kit 8 manufactured by Dojindo Laboratories. There are shown in the following Table the results in the case where the number of the cells when no HOP alkali metal salt was added to the culture medium was taken to be 100.

[4] = Chemical stability: color change on mixing with ascorbic acid aqueous solution; assay type: physicochemical; settings: 10 mg sample, 200 μl of 10 mass % ascorbic acid aqueous solution
Experimental: [Chemical Stability] The HOP disodium fabricated in Example 1 and pyrroloquinoline quinone disodium were tested. 10 mg of the each sample was put in a test tube, and 200 μl of a 10 mass % ascorbic acid aqueous solution was mixed.

physchem = settings: 30 °C, water, thermodynamic from solid
Experimental: as §1

Molecule	Cold Storage (4° C.): visual change [2]	Room-Temperature Storage (23° C.): visual change [2]	other results
HOP disodium	no change	no change	Saturated Solubility [1]: 290 mM; number of the cells (no addition taken to be 100) ([3]; 4.9 mg/L): 116; number of the cells (no addition taken to be 100) ([3]; 19.5 mg/L): 130; color change with ascorbic acid [4]: no large change in the color
HOP 2.9 sodium	no change	no change	–
HOP 2.5 sodium	no change	no change	–
CC(=O)CC1(O)C(=O)c2cc(C(=O)O)[nH]c2-c2c(C(=O)O)cc(C(=O)O)nc21 (centres unmarked) [HOP free form, 5-Hydroxy-4-oxo-5-(2-oxopropyl)-4,5-dihydro-1H-pyrrolo[2,3-f]quinoline-2,7,9-tricarboxylic acid, reference compound]	no change	–	solubility (physchem): 2.9 mM (≈ 1130 µg/mL); number of the cells (no addition taken to be 100) ([3]; 4.9 mg/L): 95; number of the cells (no addition taken to be 100) ([3]; 19.5 mg/L): 103
O=C(O)c1cc(C(=O)O)c2c(n1)C(=O)C(=O)c1cc(C(=O)O)[nH]c1-2.[Na].[Na] [PQQ disodium, pyrroloquinoline quinone disodium, reference compound]	–	–	solubility (physchem): 7.5 mM; color change with ascorbic acid [4]: changed in the color to black
O=C(O)c1cc(C(=O)O)c2c(n1)C(=O)C(=O)c1cc(C(=O)O)[nH]c1-2 [PQQ free form, pyrroloquinoline quinone]	–	–	solubility (physchem): 1 mM (≈ 330 µg/mL)
HOP trisodium hydrogen carbonate cocrystal	no change	no change	–
HOP disodium hydrogen carbonate cocrystal	no change	no change	–
HOP dilithium	no change	no change	–
CC(=O)CC1(O)C(=O)c2cc(C(=O)[O-])[nH]c2-c2c(C(=O)[O-])cc(C(=O)[O-])nc21.[Na+].[Na+].[Na+] (racemic) [HOP trisodium]	no change	change to brown	number of the cells (no addition taken to be 100) ([3]; 4.9 mg/L): 128; number of the cells (no addition taken to be 100) ([3]; 19.5 mg/L): 121
O=C(O)c1cc(C(=O)O)c2c(n1)C(=O)C(=O)c1cc(C(=O)O)[nH]c1-2 [PQQ trisodium, reference compound]	–	–	Saturated Solubility [1]: 35 mM
HOP dipotassium	no change	no change	–
CC(=O)CC1(O)C(=O)c2cc(C(=O)[O-])[nH]c2-c2c(C(=O)[O-])cc(C(=O)[O-])nc21.[K+].[K+].[K+] (centres unmarked) [HOP tripotassium]	no change	–	–
CC(=O)CC1(O)C(=O)c2cc(C(=O)[O-])[nH]c2-c2c(C(=O)[O-])cc(C(=O)[O-])nc21.[Li+].[Li+].[Li+] (racemic) [HOP trilithium]	no change	–	–
